Data on 6 substances can be found in patent US20240368583A1, “DNA CONSTRUCTS, RECOMBINANT CELLS COMPRISING THEREOF, BACTERIAL PROBES, METHODS FOR THEIR PREPARATION, AND METHOD OF USING THEREOF” (YEDA RESEARCH AND DEVELOPMENT CO. LTD., priority 2019, published 2024).

The nature of data set [1]: Adhesion of modified bacteria to the solid support. Conditions: duplex with ODN-1 on His-tagged bacteria; 15 min; control unmodified bacteria. How it is done: A solution of (11-mercaptoundecyl)tetra(ethylene glycol)^9 (2 mM in ethanol) were added to the gold coated substrates and incubated for 2 h. After removing the solution, the slides were washed four times with ethanol. Bacteria samples decorated with a duplex consisting of Compound 102 and Compound 207 were washed twice with PBS, resuspended in 100 μl phosphate buffer (pH=3.8), and then incubated on gold surfaces for 15 min. The solution containing bacteria was removed, and the slides were rinsed three times with PBS, and twice with water. Finally, they were imaged using an Olympus IX51 microscope.
Methods: His-tagged bacteria were decorated with a duplex assembled from ODN-1 and HS-ODN-2 (Compound 207), namely, an ODN-2 that is appended with a thiol group. HS is known to have high affinity to gold. In the following step, unmodified His-tagged bacteria and thiol-modified His-tagged bacteria (FIG. 6A) were incubated with a gold substrate that was previously passivated with (11-mercaptoundecyl)tetra(ethylene glycol) to prevent non-specific bacterial adhesion. Gold surfaces were observed after 15 min incubation. Cells were then incubated with ODN-3 to detach Compound 207 from bacteria membranes.

A further data set has as its system LNCaP cells. Kind of data set: Fluorescence imaging of bacteria-cell interaction, LNCaP cells. Format: cell-based, human. As to conditions: bacteria linked to duplex with Compound 105; 20 min, washed. How it is done: (§1) Cells (15,000 cells/well) were seeded onto glass bottom culture dishes (MatTek) and allowed to adhere overnight. MDA-MB-435 cells were seeded in MEM medium supplemented with 5% charcoal dextran-stripped calf serum, 1% non-essential amino acids, 1% L-glutamine, and 1% penicillin/streptomycin. KB cells were plated in folate-depleted RPMI supplemented with 10% FBS and 1% penicillin/streptomycin while LNCaP were maintained in RPMI, 10% FBS, 1% L-glutamine, and 1% penicillin/streptomycin. Following day, medium was removed, rinsed thrice with PBS and then the cells were incubated with B-probes 1-4 (prepared by incubating His-bacteria with duplexes 1-4 at 500 nM concentration for 1 h at 25° C. followed by washing with PBS buffer) at 37° C., 5% CO2 in incubator for 20 min. Finally, the excess/unbound bacteria were gently washed off with PBS containing Ca^+2 and Mg^+2 (200 μL×3) and the cells were imaged using a fluorescence microscope with 60× objective lens. […]
(§2) MDA-MB-435 cells, LNCaP and KB cells were maintained in their respective media as mentioned in the previous section. […] After 20 minutes, the unbound bacteria were gently washed off with PBS containing Ca^+2 and Mg^+2 (200 μL×3) and the cells were imaged using a fluorescence microscope and a 60× objective lens.

Data set [2] deals with Alexa 647-modified streptavidin (Streptomyces avidinii, UniProt P22629). Nature of the data set: Bacteria-streptavidin interaction. It is filed as cell-based. As to conditions: duplex with ODN-1 on His-tagged bacteria; Alexa-SA 500 nM, 1 h. How it is done:
His-tagged bacterial cells were decorated with a duplex consisting of ODN-1 and Compound 205 duplex according to a similar procedure described above. For binding with streptavidin, cells were incubated with Alexa-647 streptavidin conjugate (500 nM) in PBS×1 for 1 h, and after washing twice with PBS were imaged by fluorescent microscopy. The fluorescent signal was abolished when bacterial cells were treated with ODN-3 (3 μM) for 1 h. The control experiment was performed similarly using bacteria decorated with a duplex containing ODN-1 and the complementary strand.
Methods: His-tagged E. coli were incubated with an ODN-1 molecule and afterwards with a biotin-ODN-2 molecule (Compound 205). Then, the cells were incubated with an Alexa 647-modified streptavidin (FIG. 5A). To verify specificity, the same experiment was performed with an ODN-2 molecule lacking biotin (FIG. 5A). Cells were then incubated with ODN-3 to detach ODN-2 from the cell membranes.

In data set [3] the test system is Native bacteria (that lack His-tag). Kind of data set: Decorating bacteria with the oligonucleotides, fluorescence imaging (native bacteria control). It is filed as cell-based, E. coli. As to conditions: native bacteria lacking His-OmpC; 500 nM with Ni (II). The method, then: (§3) E. coli K-12 strain KRX (Promega) was used for protein expression. Transformed bacteria with the different OmpC constructs (OmpC or His-OmpC) were cultured to saturation in LB medium supplemented with 100 μg/ml of ampicillin at 30° C. 40 μl of the pre-cultured cells were then diluted into 4 ml of fresh LB medium supplemented with ampicillin, and incubated until the OD600 reaches ˜0.6. Protein expression was then induced by the addition of 0.1% Rhamnose and 20 μM isopropyl-b-D-1-thiogalactopyranoside (IPTG) and cultures were allowed to grow at 30° C. for 18 h. Then, the bacterial cells were harvested by centrifugation at 6,000 g for 4 min.
The bacterial cells (OmpC or His-OmpC) were collected by centrifugation at 6000 g for 4 min. The pellet was washed twice with PBS×1 buffer and resuspended in the same buffer to an OD600 of 0.3. To a 100 μl sample of the bacteria suspension, a preincubated sample of DNA (500 nM) and NiCl2 (2.5 μM) was added, and the cells were incubated at room temperature for 1 h. Then the bacterial sample were washed twice with PBS, resuspended in 100 μl PBS and placed on a glass-bottom dish (P35G-1.5-14-C; MatTek) precoated with poly-1-lysine (Sigma Aldrich) and left to adhere for 1 h. Finally, the wells were washed vigorously with PBS three times and imaged using an Olympus IX51 fluorescent microscope. The samples were imaged using 60× or 100× objective lenses.

Data set [4] relates to E. coli expressing His-OmpC. Nature of the data set: Treatment of the modified bacteria with EDTA. Format: cell-based. Conditions: 10 mM EDTA, 1 h. The method, then: Bacterial samples decorated with Compound 100 were incubated with various concentrations of EDTA (0, 5, 10 mM) for 1 h. Cells were then collected (6,000 g, 4 min) and washed twice with […] PBS buffer. Cells were resuspended in 100 μl PBS buffer and added to poly-1-lysine-coated slides for imaging.

In data set [5] the test system is E. coli expressing His-OmpC. Nature of the data set: Decorating bacteria with the oligonucleotides, fluorescence imaging. Format: cell-based. The method, then: as §3
The bacterial cells (OmpC or His-OmpC) were collected by centrifugation at 6000 g for 4 min. The pellet was washed twice with PBS×1 buffer and resuspended in the same buffer to an OD600 of 0.3. […] Then the bacterial sample were washed twice with PBS, resuspended in 100 μl PBS and placed on a glass-bottom dish (P35G-1.5-14-C; MatTek) precoated with poly-1-lysine (Sigma Aldrich) and left to adhere for 1 h. Finally, the wells were washed vigorously with PBS three times and imaged using an Olympus IX51 fluorescent microscope. The samples were imaged using 60× or 100× objective lenses.

Another data set concerns His-tagged bacteria. Kind of data set: Super-resolution (STORM) microscopy of decorated bacteria. It is filed as cell-based, E. coli. Conditions: duplex with ODN-1; transverse cut. The method, then: Super-resolution images were collected on a Vutara SR200 STORM (Bruker) microscope based on the single-molecule localization biplane technology. His-tagged bacteria was decorated with ODN-1:Compound 201 duplex according to the procedure described in above. The bacteria were imaged using 647 nm excitation laser and 405 nm activation laser in an imaging buffer composed of 5 mM cysteamine, oxygen scavengers (7 μM glucose oxidase and 56 nM catalase) in 50 mM Tris, 10 mM NaCl and 10% glucose at pH 8.0. Images were recorded using a 60×NA 1.2 water immersion objective (Olympus) and Evolve 512 EMCCD camera (Photometrics) with gain set at 50, frame rate at 50 Hz, and maximal power of 647 and 405 nm lasers set at 6 and 0.05 kW/cm^2, respectively. Total number of frames acquired was 8000. Data was analyzed by the Vutara SRX software.
Methods: Due to the small size of bacteria, super resolution (SR) microscopy was used to visualize E. Coli 's membrane with super resolution (SR). This was achieved by combining ODN-1 with a commercially available ODN-2 (Cy5-ODN-2; Compound 201) bearing a Cy5 dye, which is compatible with stochastic optical reconstruction microscopy (STORM).

Another data set deals with MDA-MB-435 cells. Kind of data set: Fluorescence imaging of bacteria-cell interaction, MDA-MB-435 cells. Format: cell-based, human. Conditions: bacteria linked to duplex with Compound 105; 20 min, washed. The method, then:
as §1, §2

Chain of Alexa 647-modified streptavidin (P22629 25-183): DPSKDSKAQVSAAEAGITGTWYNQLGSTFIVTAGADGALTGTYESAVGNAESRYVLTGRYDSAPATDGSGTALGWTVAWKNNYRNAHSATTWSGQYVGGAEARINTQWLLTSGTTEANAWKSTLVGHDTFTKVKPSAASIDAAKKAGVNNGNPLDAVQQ

“Compound 207: ODN-2 that is appended with a thiol group; SEQ ID NO. 6 (TAGGATCAGGCAGCTATGACGTGAC; DNA, backbone and methylation of C not given here; thiol group appended)”: the “attachment of thiol-modified bacteria to the gold substrate compared with the control” value in data set [1] is reported as “about 8.5 fold”.

As to “Compound 230: alkyne modified FAM-labeled ODN2 lacking the CSP binder; SEQ ID NO. 6 (DNA TAGGATCAGGCAGCTATGACGTGAC; DNA, backbone not given here; FAM label and alkyne modification, further chemistry not fully specified)”, in the data set on LNCaP cells, the “fluorescent labeling of LNCaP cells” value was “no labeling was achieved”. As to “Compound 205: biotin-ODN-2 molecule; SEQ ID NO. 6 (TAGGATCAGGCAGCTATGACGTGAC; DNA, backbone and methylation of C not given here; biotin attached)”, the “fluorescence of decorated bacteria after incubation with Alexa 647-modified streptavidin” value in data set [2] was “became fluorescent”. With “Compound 100: X-ODN-1 with tri-NTA His-tag binder, appended with a Cy5 dye; ODN sequence SEQ ID NO. 1 (GCGGCGAGGCAGC; DNA, backbone and methylation of C not given here; Cy5 dye and tri-NTA His-tag binder attached)”, the “fluorescent decoration of bacteria” value in data set [3] is on record as “No fluorescence”; in data set [5] (500 nM in the absence of nickel ions), “No fluorescence”; in data set [5] (500 nM with Ni (II)), “successfully decorated”. Moreover, in data set [4], the “removal from the cell surface by EDTA” value is given as “completely removed”. In the case of “Compound 201: commercially available ODN-2 bearing a Cy5 dye; SEQ ID NO. 6 (TAGGATCAGGCAGCTATGACGTGAC; DNA, backbone and methylation of C not given here; Cy5 dye attached, commercially available)”, the “localisation of the label on bacteria (STORM)” value in the data set with His-tagged bacteria is “only the outer membrane of the bacteria is labeled”. With “Compound 220: alkyne modified Cy5-labeled ODN2 lacking the CSP binder; SEQ ID NO. 6 (DNA TAGGATCAGGCAGCTATGACGTGAC; DNA, backbone not given here; Cy5 label and alkyne modification, further chemistry not fully specified)”, the “fluorescent labeling of MDA-MB-435 cells” value in the data set on MDA-MB-435 cells is given as “no labeling was achieved”.
